Results from paper PMC12621184, “Synthesis and Pharmacological Characterization of Nociceptin/Orphanin FQ Dimeric Ligands” (Journal of Medicinal Chemistry, 2025).
Entries after “also recorded” stand apart in the source; their conditions may differ. Bridge positions count the residues as written; N and C are the ends. Ends that are not written are not given here. Peptide text beside a SMILES is read from it. I, II: the chains in the order shown.

Experiments:
human NOP [1] = target: T1, human NOP (Homo sapiens, UniProt P41146); assay: Calcium mobilization assay, CHO cells with NOP receptor and chimeric G protein; assay type: cell-based; design: expressed in transfected cells
Description: Chinese hamster ovary (CHO) cells stably coexpressing the human NOP, μ, or κ opioid receptors and the Gαqi5 protein or the human δ and the GαqG66Di5 protein were used in this assay. , Cells were cultured in DMEM/F-12 (1:1) medium supplemented with 10% FBS, 2 mM L-glutamine, […], 100 IU/mL penicillin, and 100 IU/mL streptomycin. Cells were maintained at 37 °C in a humidified atmosphere with 5% CO2 and were seeded at 50 000 cells/well into 96-well black, clear-bottom plates 24 h before test. Loading for 45 min with a solution consisting of HBSS supplemented with 2.5 mM probenecid, 3 μM Fluo-4 AM, and 0.01% pluronic acid ensures the calcium-sensitive dye (Fluo-4) reaches the needed concentration inside the cell, while the exchange of the solution with 100 μL/well of buffer consisting of HBSS with 20 mM HEPES, 2.5 mM probenecid, and 500 μM Brilliant Black allows for fluorescence background to decrease. Serial dilutions of ligands were prepared in HBSS buffer with 20 mM HEPES and 0.02% bovine serum albumin (BSA) to minimize the ligands’ stickiness to plasticware. The automated microplate reader FlexStation II (Molecular Devices, CA, US) was employed at 37 °C to detect changes in fluorescence intensity. The effects of all compounds were expressed as the maximum change in percentage over the baseline fluorescence measured in samples treated with vehicles.
(§1) Concentration-response curves to agonists were analyzed by a four-parameter logistic nonlinear regression model: Effect = baseline + (E max – baseline)/(1 + 10^((logEC50–log[ligand])slope)). […] Experimental data were expressed as mean ± sem of at least 5 experiments. Potency values were expressed as the mean and CL95%. In vitro E max values were analyzed by one-way ANOVA, while in vivo latency data were evaluated by one-way ANOVA followed by Dunnett’s post hoc test. The proportion of mice losing the righting reflex was compared by Fisher’s exact test performed on raw data. GraphPad Prism 10.0 software was used for all of the analyses. The terminology employed is consistent with the International Union of Basic and Clinical Pharmacology (IUPHAR) recommendations. ,

human NOP [2] = target: T1, human NOP; assay: NOP receptor–G protein interaction BRET assay; assay type: biochemical; design: expressed in transfected cells; host or cells: membranes of HEK293 cells stably coexpressing NOP-RLuc and Gβ1-RGFP; settings: N = 5 experiments in duplicate
Description: A BRET interaction assay was used, as previously detailed in ref , to study the propensity of ligands to evoke interaction between the NOP receptor and to G protein. Membranes taken from HEK293 cells stably coexpressing the fusoproteins NOP-RLuc and Gβ1-RGFP were used. Such cells were grown in DMEM medium supplemented with 10% FBS, 2 mM L-glutamine, […] G418, […] hygromycin B, 100 IU/mL penicillin, and 100 IU/mL streptomycin in a humidified atmosphere with 5% CO2 at 37 °C. Cell membranes were thawed and resuspended in PBS supplemented with 0.01% BSA before the assay, and an amount of 3 μg of total protein was dispensed in each of the 96 wells together with 2 μM Prolume Purple Coelenterazine. All experiments were carried out at room temperature. Ligands were added, and averaged BRET ratios from 10 min measurements were computed. BRET ratios were computed as counts per second (CPS) obtained on a Victor Nivo (PerkinElmer) with 405 (10) nm and 510 (30) nm bandpass filters. Vehicles’ BRET ratios were derived from light passed through 510 divided by that passed through 405 filters. Vehicles BRET values were subtracted from all computations, and data sets were normalized as a fraction of N/OFQ maximal effects.
as §1

sleep in rats = settings: reported in the literature, ref not given; cited from earlier work
[3] = system: mouse vas deferens from NOP(+/+) mice; assay: Electrically stimulated mouse vas deferens bioassay, NOP(+/+) tissues; settings: for potency (pEC50) for inhibition of electrically induced contractions / maximal inhibition of electrically induced contractions: mVD from CD-1 NOP(+/+) mice, 5 experiments; for potency (pEC50) for inhibition of electrically induced contractions: 33 °C, mean (CL95%); for maximal inhibition of electrically induced contractions: mean ± sem
Description: (§2) This study was approved by the Animal Welfare Body of the University of Ferrara and by the Italian Ministry of Health (authorization number CBCC2.N.BXI). Experiments were performed on an isolated mouse vas deferens. All experiments were conducted with mice bred and housed in the University of Ferrara’s animal facility under specific pathogen-free conditions (SPF). All mice were housed in cages with individual ventilation, with a constant temperature of 21 °C, 60% humidity, and a 12 h light/dark cycle. Food and water were provided ad libitum. CD-1 NOP(+/+) and CD-1 NOP(−/−) male mice, aged 9 to 12 months, were used. Animals were sacrificed on the day of the experiment with CO2 overdose. Bioassay experiments were performed as previously described. The tissues were suspended in 5 mL organ bath containing Krebs solution (NaCl 118.5 […]). The Krebs solution was oxygenated with 95% O2 and 5% CO2 and the temperature set at 33 °C with a resting tension of 0.3 g applied to the tissues. Tissues were stimulated through two platinum electrodes with a supramaximal rectangular pulse of 1 ms duration, 0.05 Hz frequency, and 80 V of amplitude. The electrically evoked contractions were measured isotonically by means of Basile strain gauge transducers (Basile, IT) and a recorder with a Power Lab 8 instrument (ADInstruments, CO, U.S.). Following an equilibration period of approximately 60 min, the contractions induced by electrical field stimulation were stable. At this time, cumulative concentration response curves were carried out.
as §1

[4] = system: mouse vas deferens from NOP(−/−) mice; assay: Electrically stimulated mouse vas deferens bioassay, NOP(−/−) tissues; settings: mVD from CD-1 NOP(−/−) mice; 5 experiments
Description: as §2
Concentration-response curves to agonists were analyzed by a four-parameter logistic nonlinear regression model: Effect = baseline + (E max – baseline)/(1 + 10^((logEC50–log[ligand])slope)). […] Experimental data were expressed as mean ± sem of at least 5 experiments. Potency values were expressed as the mean and CL95%. In vitro E max values were analyzed by one-way ANOVA, while in vivo latency data were evaluated by one-way ANOVA followed by Dunnett’s post hoc test. […]

[5] = target: murine NOP receptor (mouse (endogenous in mouse vas deferens)) (UniProt P35377)
[6] = system: loss of the righting reflex (RR) in mice; assay: Loss of the righting reflex assay in mice; assay type: in vivo, mouse; settings: 10 nmol, icv
Description: All of the experimental procedures adopted in the in vivo studies comply with the European Directive 2010/63/EU on protecting animals used for scientific purposes and Italian Legislative Decree no. 26 of March 4, 2014. These experiments were approved by the Animal Welfare Body of the University of Ferrara and by the Ministry of Health (authorization number 677/2024-PR). In vivo studies have been reported following ARRIVE guidelines. All experiments were conducted with mice bred and housed in the University of Ferrara’s animal facility under specific pathogen-free conditions. All mice were housed in cages with individual ventilation, with a constant temperature of 21 °C, 60% humidity, and a 12 h light/dark cycle. Food and water were provided ad libitum. CD-1 male and female mice, aged 2 to 4 months, were used. Details about the generation of NOP(−/−) and NOP(+/+) mice have been published previously; , these mice have been backcrossed on CD-1 strain in our laboratories. NOP(+/+) and NOP(−/−) littermates were obtained by mating with NOP(±) mice. All mice were genotyped using the polymerase chain reaction previously described. All mice were used only once. The RR assay was performed as previously described. […] Diazepam 15 mg/kg was injected ip. When the animals lost RR, they were placed in a plastic cage, and the time was recorded by an expert observer, blind to drug treatments and/or genotype. Animals were judged to have regained the RR response when they could correct themselves three times within 30 s. Sleeping time is defined as the amount of time between the loss and regaining of the RR; it was rounded to the nearest minute.
as §1

NOP-RLuc = NOP-RLuc (UniProt P41146)
[7] = target: human nociceptin/orphanin FQ (N/OFQ) peptide receptor (human) (UniProt P41146)
human nociceptin/orphanin FQ (N/OFQ) peptide receptor (human), sequence (P41146 whole entry): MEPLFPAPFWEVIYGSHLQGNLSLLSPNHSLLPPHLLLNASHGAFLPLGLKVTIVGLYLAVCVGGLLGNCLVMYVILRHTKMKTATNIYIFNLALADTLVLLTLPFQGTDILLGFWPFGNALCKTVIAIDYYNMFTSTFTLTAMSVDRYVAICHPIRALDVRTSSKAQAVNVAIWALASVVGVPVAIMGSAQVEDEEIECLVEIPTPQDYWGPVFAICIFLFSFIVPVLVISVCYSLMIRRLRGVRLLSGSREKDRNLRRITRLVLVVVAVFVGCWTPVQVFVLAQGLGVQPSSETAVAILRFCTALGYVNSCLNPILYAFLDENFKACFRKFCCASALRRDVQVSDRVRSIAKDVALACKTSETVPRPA

murine NOP receptor (mouse (endogenous in mouse vas deferens)), sequence (P35377 whole entry): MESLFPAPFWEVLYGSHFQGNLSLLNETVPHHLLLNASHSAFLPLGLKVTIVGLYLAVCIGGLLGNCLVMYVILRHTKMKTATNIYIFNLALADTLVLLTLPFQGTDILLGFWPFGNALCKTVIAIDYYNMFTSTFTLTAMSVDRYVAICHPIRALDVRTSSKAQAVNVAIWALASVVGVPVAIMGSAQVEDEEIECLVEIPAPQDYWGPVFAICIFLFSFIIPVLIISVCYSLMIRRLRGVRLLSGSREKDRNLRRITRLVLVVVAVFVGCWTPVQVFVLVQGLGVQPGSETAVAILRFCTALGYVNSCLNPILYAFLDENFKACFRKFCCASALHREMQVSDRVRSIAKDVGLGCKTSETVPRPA
T1 sequence (P41146 whole entry): as the sequence (P41146 whole entry) above
NOP-RLuc, sequence (P41146 whole entry): as above

CC(C)C[C@H](NC(=O)[C@H](CCCCN)NC(=O)[C@H](CCCNC(=N)N)NC(=O)[C@H](C)NC(=O)[C@H](CO)NC(=O)[C@H](CCCCN)NC(=O)[C@H](CCCNC(=N)N)NC(=O)[C@H](C)NC(=O)CNC(=O)[C@@H](NC(=O)[C@H](Cc1ccccc1)NC(=O)CNC(=O)CNC(=O)[C@@H](N)Cc1ccccc1)[C@@H](C)O)C(=O)N[C@@H](C)C(=O)N[C@@H](CSSC[C@H](NC(=O)[C@H](C)NC(=O)[C@H](CC(C)C)NC(=O)[C@H](CCCCN)NC(=O)[C@H](CCCNC(=N)N)NC(=O)[C@H](C)NC(=O)[C@H](CO)NC(=O)[C@H](CCCCN)NC(=O)[C@H](CCCNC(=N)N)NC(=O)[C@H](C)NC(=O)CNC(=O)[C@@H](NC(=O)[C@H](Cc1ccccc1)NC(=O)CNC(=O)CNC(=O)[C@@H](N)Cc1ccccc1)[C@@H](C)O)C(=O)N[C@@H](CCC(N)=O)C(N)=O)C(=O)N[C@@H](CCC(N)=O)C(N)=O [1j, [[Cys^16]N/OFQ-NH2]2] (I: H-FGGFTGARKSARKLACQ-NH2 / II: H-FGGFTGARKSARKLACQ-NH2; disulfide I:16-II:16)
EC50 (human NOP [1]; CHO cells coexpressing human NOP and Gαqi5, Fluo-4, 37 °C, mean (CL95%), N = 5 experiments in duplicate, read-out: Ca^2+ mobilization pEC50 (CL95%) (converted)): 1.38 nM
Ca^2+ mobilization E max ± sem (human NOP [1]; CHO cells coexpressing human NOP and Gαqi5, maximum change in percentage over baseline fluorescence, mean ± sem, N = 5 in duplicate): 312 ± 38 % over the baseline
NOP–G protein interaction E max ± sem (human NOP [2]; effects normalized to N/OFQ-NH2 (E max = 1), mean ± sem): 0.98 ± 0.02
EC50 (human NOP [2]; membranes from HEK293 cells coexpressing NOP-RLuc and Gβ1-RGFP, room temperature, mean (CL95%), read-out: NOP–G protein interaction pEC50 (CL95%) (converted)): 0.174 nM

O=C1NCN(c2ccccc2)C12CCN([C@@H]1CC[C@H]3CCCc4cccc1c43)CC2 [Ro 64-6198]
induced sleep at EEG recordings (sleep in rats): 3 to 5 h

O=C(O)c1nc2ccccc2n([C@@H]2C[C@H]3CCC[C@@H](C2)N3C2C[C@H]3CCC[C@@H](C2)C3)c1=O (stereo partly shown) [Sunobinop]
induced sleep at EEG recordings (sleep in rats): 3 to 5 h

[D-Pen^2,D-Pen^5]enkephalin [DPDPE]
potency (pEC50) for inhibition of electrically induced contractions [3]: 7.72 (7.45–7.99)
maximal inhibition of electrically induced contractions [3]: 86 ± 6%
effect in mVD tissues from NOP(−/−) mice (in words) [4]: superimposable

nociceptin/orphanin FQ (peptide)
maximal inhibition of electrically induced contractions of the mouse vas deferens, NOP(+/+) tissues [5]: 71%
potency (pEC50), inhibition of electrically induced contractions of the mouse vas deferens, NOP(+/+) tissues [5]: 7.59 pEC50

nociceptin/orphanin FQ [N/OFQ]
potency (pEC50) for inhibition of electrically induced contractions [3]: 7.59 (7.41–7.77)
maximal inhibition of electrically induced contractions [3]: 71 ± 4%
kinetics of action in mVD (in words) ([3]; onset and reversibility upon washout): fully and rapidly reversible upon washout
effect in mVD tissues from NOP(−/−) mice (in words) [4]: completely inactive
mice that lost the RR, 10 nmol ([6]; CD-1 mice, N = 8–10 per group): fewer than half
duration of action on RR (in words) ([6]; mice that lost the RR): short-lasting action; also recorded: few minutes

B1: [[Cys^14]N/OFQ-NH2]2 (peptide)
peptide: FGGFTGARKSARKCANQ-NH2
modifications: also: homodimer: Cys14-Cys14 disulfide to second copy
pEC50, NOP–G protein interaction (BRET, membranes of HEK293 cells with NOP-RLuc and Gβ1-RGFP) (NOP-RLuc): 9.91 pEC50
E max, NOP–G protein interaction (BRET), normalised to N/OFQ-NH2 (E max = 1) (NOP-RLuc; scale: fraction of the maximal effect of N/OFQ-NH2): 0.8
E max, Ca^2+ mobilization in CHO cells with human NOP and Gαqi5 (% over baseline) [7]: 241
pEC50, Ca^2+ mobilization in CHO cells with human NOP and Gαqi5 [7]: 9.14 pEC50
pEC50, inhibition of electrically induced contractions of the mouse vas deferens, NOP(+/+) tissues [5]: 6.79 pEC50
